Assay results taken from publication PMC9458004, “Simultaneous Determination and Pharmacokinetics Study of Three Triterpenes from Sanguisorba officinalis L. in Rats by UHPLC–MS/MS” (Molecules, 2022).

How the values were obtained:
[1] = Pharmacokinetic study in rats after single oral administration of ZGI, DGE, PA or S. officinalis extract (plasma, UHPLC-MS/MS); assay type: in vivo, Sprague-Dawley rats; conditions: for conversion in vivo after oral administration (in words): rats, oral administration of the monomer, from plasma levels of ZGI, DGE, PA
Text: The UHPLC–MS/MS method was successfully used in the pharmacokinetic studies of the three analytes after single dose administration of ZGI, DGE, PA, and S. officinalis extract in rats (0.55 g/kg, equivalent to 0.03, 0.013, and 0.007 g/kg of ZGI, DGE, and PA, respectively). Based on the body surface area calculations of people and the animals and equivalent dose conversion calculations, the dosage of the rats was 0.55 g/kg.
The experimental protocol was permitted by the Animal Ethics Committee of Harbin Medical University (Approval Code: AECHMU20150021, Approval Date: 3 June 2015) and conformed to the principles for the Care and Use of Laboratory Animals. Twenty-four male Sprague-Dawley rats (weighting 200 ± 20 g), which were provided by the Laboratory Animal Center at Harbin Medical University (Harbin, China), were used for the pharmacokinetic study. The animals were maintained in a SPF-grade room on a 12 h light/dark cycle with a controlled temperature conditions (21 ± 2 °C) and relative humidity (50 ± 5%) before the experiment. During the adaptation process, all rats were provided with standard food and purified water each morning and evening. Each rat fasted for 12 h before giving the drug and was randomly divided into one of four groups (n = 6).
A single dose of the S. officinalis extract (0.55 g/kg, group I), ZGI (0.03 g/kg, group II), DGE ([…], group III), and PA (0.013 g/kg, group IV) was administrated to the rats. The S. officinalis extract was dissolved in water. A single dose of 0.55 g/kg of S. officinalis extract was administrated to the rats. Blood was obtained from the retinal venous plexus at 0, 0.083, 0.5, 1.0, 1.5, 2.0, 2.5, 3.0, 4.0, 6.0, 8.0, 12.0, and 24.0 h after dosing. The plasma was immediately separated by centrifugation at 8000 rpm for 4 min at −4 °C.
The maximum concentration (Cmax) and the time to attain it (Tmax) were observed directly from the measured data. The elimination rate constant (Ke) was calculated by linear regression of the terminal points in a semi-log plot of the plasma concentration against time. The area under plasma concentration–time curve (AUC0→t) to the last measurable plasma concentration (Ct) was estimated using the linear trapezoidal rule.
Calculate the amount of three compounds using linear regression from the standard curve. The pharmacokinetic parameters of the analytes were calculated with DAS 2.0 (Shanghai, China). All results were expressed as mean ± SD. The comparison of pharmacokinetic parameters was conducted using standard Student’s t-test. Differences between groups were assumed statistically significant for p values < 0.05.

[2] = Stability of the three analytes in rat plasma under various storage conditions; assay type: in vitro ADME; conditions: n = 6; for Stability (% RE) Post-Preparative: 12 h after sample preparation at 4 °C; for Stability (% RE) Short-Term / Stability (% RE) Three Freeze-Thaw: rat plasma; for Stability (% RE) Short-Term: 4 h at ambient temperature; for Stability (% RE) Three Freeze-Thaw: three freeze-thaw cycles at −20 °C
Protocol: The stability of rat plasma under different storage conditions was determined. […] All compounds maintained steady levels for […].
The stability of the three compounds in rat plasma, including freeze and thaw stability (three freeze-thaw cycles at −20 °C), long-term stability (storage for 2 weeks at −80 °C), room temperature stability (storage for 4 h at ambient temperature), and post-preparation stability (storage for 12 h after sample preparation at 4 °C), was tested at two QC levels with six replicates at each level. All stability testing QC samples were determined using the calibration curve of freshly prepared standard samples.

[3] = as above; assay type: in vitro ADME; conditions: storage for 2 weeks at −80 °C (b26 says −20 °C), n = 6
[4] = high QC (ZGI 2080, DGE 1840, PA 840.0 ng/mL)
[5] = low QC (ZGI 19.5, DGE 17.4, PA 7.8 ng/mL)

Row | conversion in vivo after oral administration (in words) [1] | Stability (% RE) Post-Preparative [2, 4] [% RE] | Stability (% RE) Post-Preparative [2, 5] [% RE] | Stability (% RE) Short-Term [2, 4] [% RE] | Stability (% RE) Short-Term [2, 5] [% RE] | Stability (% RE) Three Freeze-Thaw [2, 4] [% RE] | Stability (% RE) Three Freeze-Thaw [2, 5] [% RE] | Stability (% RE) Long-Term [3, 4] [% RE] | Stability (% RE) Long-Term [3, 5] [% RE] | Cmax ([1]; male, Sprague-Dawley, analyte ZGI in rat plasma, single oral dose of the row's substance (S. officinalis extract 0.55 g/kg, ZGI 0.03 g/kg), n = 6, mean ± SD) [ng/mL] | Tmax ([1]; male, Sprague-Dawley, analyte ZGI in rat plasma, single oral dose of the row's substance (extract 0.55 g/kg, ZGI 0.03 g/kg), n = 6) [h] | half-life ([1]; male, Sprague-Dawley, analyte ZGI in rat plasma, single oral dose of the row's substance (extract 0.55 g/kg, ZGI 0.03 g/kg), n = 6, read-out: t1/2 of ZGI (converted)) [h] | SMILES
1 | may be transformed into PA | 7.7 | 14 | 0.70 | 8.4 | 3.5 | 3.3 | 5.8 | 9.6 | – | – | – | CC1CCC2(C(=O)OC3OC(CO)C(O)C(O)C3O)CCC3(C)C(=CCC4C5(C)CCC(O)C(C)(C)C5CCC43C)C2C1(C)O [DGE, 3β,19α-dihydroxyurs-12-en-28-oic-acid 28-β-D-glucopyranosyl ester]
2 | cannot convert into ZGI and DGE | 13 | 7.1 | 3.1 | −5.0 | 5.2 | 12 | 7.6 | 13 | – | – | – | C[C@@H]1CC[C@]2(C(=O)O)CC[C@]3(C)C(=CC[C@@H]4[C@@]5(C)CC[C@H](O)C(C)(C)[C@@H]5CC[C@]43C)[C@@H]2[C@]1(C)O [PA, pomolic acid]
3 | may be converted into DGE and PA | 6.4 | 9.2 | 2.4 | 14 | 2.8 | 6.2 | 3.4 | 15 | 678 ± 47 | 1.4 ± 0.2 | 11 ± 1 | C[C@@H]1CC[C@]2(C(=O)O[C@@H]3O[C@H](CO)[C@@H](O)[C@H](O)[C@H]3O)CC[C@]3(C)C(=CC[C@@H]4[C@@]5(C)CC[C@H](O[C@@H]6OC[C@H](O)[C@H](O)[C@H]6O)C(C)(C)[C@@H]5CC[C@]43C)[C@@H]2[C@]1(C)O [ZGI, Ziyuglycoside I]
